ChEMBL document CHEMBL1201862, “PubChem BioAssay data set” (2004)
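Assay format: 96-well plates, 48-hour exposure. Here, GI50 denotes the concentration required for 50% inhibition of growth.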 The source made the active and inactive calls. No stated cut-off is given here; in the data, active = GI50 up to about 1.1 µM and inactive = higher.

Assays:
Experiment in all cases: NCI-60 cell line screen, 48 h
HOP-62 = test system: HOP-62
SK-MEL-2 = test system: SK-MEL-2
M14 = test system: M14
K562 = test system: K562
HL-60 = test system: HL-60
SK-OV-3 = test system: SK-OV-3
HT-29 = test system: HT-29
SF-295 = test system: SF-295
786-0 = test system: 786-0
EKVX = test system: EKVX
SW-620 = test system: SW-620
SK-MEL-5 = test system: SK-MEL-5
SN12C = test system: SN12C
SK-MEL-28 = test system: SK-MEL-28
MOLT-4 = test system: MOLT-4
HCT-15 = test system: HCT-15

SMILES	GI50 (HOP-62)	GI50 (SK-MEL-2)	GI50 (M14)	GI50 (K562)	GI50 (HL-60)	GI50 (SK-OV-3)	GI50 (HT-29)	GI50 (SF-295)	GI50 (786-0)	GI50 (EKVX)	GI50 (SW-620)	GI50 (SK-MEL-5)	GI50 (SN12C)	GI50 (SK-MEL-28)	GI50 (MOLT-4)	GI50 (HCT-15) [µM]
CCOc1ccccc1NC(=O)C1=C(C)NC(C)=C(C(=O)Nc2ccccc2OCC)C1c1ccc2c(c1)OCO2	37.4 µM (inactive)	18.7 µM (inactive)	18.8 µM (inactive)	6.01 µM (inactive)	10.7 µM (inactive)	18 µM (inactive)	37.2 µM (inactive)	21.2 µM (inactive)	41.3 µM (inactive)	39.6 µM (inactive)	38.4 µM (inactive)	11.1 µM (inactive)	38.7 µM (inactive)	35.2 µM (inactive)	12.1 µM (inactive)	–
O=C(N[C@H]1CC2(C=C(I)C(=O)C(I)=C2)OC1=O)OCc1ccccc1	22.6 µM (inactive)	–	17.2 µM (inactive)	10.4 µM (inactive)	3.93 µM (inactive)	34.8 µM (inactive)	17.5 µM (inactive)	19.5 µM (inactive)	20.8 µM (inactive)	14.3 µM (inactive)	–	27 µM (inactive)	18.2 µM (inactive)	18.5 µM (inactive)	–	20.9
Cn1nc(-c2ccccc2)c(C(=O)/C=C/c2ccc(F)cc2)c(N2CCOCC2)c1=O	–	–	21.8 µM (inactive)	16.8 µM (inactive)	14.6 µM (inactive)	32.7 µM (inactive)	15.9 µM (inactive)	18.2 µM (inactive)	16 µM (inactive)	25.7 µM (inactive)	21.3 µM (inactive)	14.8 µM (inactive)	28.3 µM (inactive)	15.8 µM (inactive)	14.2 µM (inactive)	23.6
N#Cc1c2c(c(Cl)n3c1nc1ccccc13)CCCC2	> 10 µM (inactive)	2.8 µM (inactive)	3.45 µM (inactive)	2.5 µM (inactive)	1.66 µM (inactive)	2.48 µM (inactive)	1.11 µM (active)	4.83 µM (inactive)	1.77 µM (inactive)	17.8 µM (inactive)	1.96 µM (inactive)	0.566 µM (active)	2.09 µM (inactive)	1.99 µM (inactive)	3.89 µM (inactive)	3.21
CCOC(=O)C1=C(C)NC(=S)NC1c1ccccc1 (configuration not stated)	> 100 µM (inactive)	> 100 µM (inactive)	> 100 µM (inactive)	50 µM (inactive)	71.8 µM (inactive)	> 100 µM (inactive)	> 96.4 µM (inactive)	> 100 µM (inactive)	> 100 µM (inactive)	> 100 µM (inactive)	–	> 83.9 µM (inactive)	> 100 µM (inactive)	> 100 µM (inactive)	59.6 µM (inactive)	> 41.3
Cc1ccc(C(=O)/C=C2\Nc3c(c(=O)oc4ccccc34)N=C2NC23CC4CC(CC(C4)C2)C3)cc1	> 100 µM (inactive)	> 100 µM (inactive)	> 100 µM (inactive)	> 100 µM (inactive)	> 100 µM (inactive)	> 100 µM (inactive)	> 100 µM (inactive)	–	> 100 µM (inactive)	> 100 µM (inactive)	> 100 µM (inactive)	> 100 µM (inactive)	> 100 µM (inactive)	> 100 µM (inactive)	> 100 µM (inactive)	> 100
CN(C)CCNC(=O)c1ccc(Cl)c2c(Nc3ccc(S(=O)(=O)N=C(N)N)cc3)c3ccccc3nc12	10.1 µM (inactive)	9.75 µM (inactive)	7.38 µM (inactive)	2.77 µM (inactive)	1.7 µM (inactive)	–	2.05 µM (inactive)	3.16 µM (inactive)	14.3 µM (inactive)	11.4 µM (inactive)	1.73 µM (inactive)	8.04 µM (inactive)	3.15 µM (inactive)	11.2 µM (inactive)	0.358 µM (active)	5.02
Brc1cc2c(cc1C1SCCS1)OCO2	> 100 µM (inactive)	> 100 µM (inactive)	> 100 µM (inactive)	59.2 µM (inactive)	96.4 µM (inactive)	> 100 µM (inactive)	> 100 µM (inactive)	> 100 µM (inactive)	> 100 µM (inactive)	> 100 µM (inactive)	> 100 µM (inactive)	> 100 µM (inactive)	–	> 100 µM (inactive)	80.4 µM (inactive)	> 100
CCc1cccc(=O)c([O-])c1.CCc1cccc(=O)c([O-])c1.[Bi+3].[Cl-]	11.6 µM (inactive)	12.7 µM (inactive)	8.38 µM (inactive)	2.81 µM (inactive)	2.54 µM (inactive)	21.4 µM (inactive)	4.31 µM (inactive)	6.31 µM (inactive)	9.1 µM (inactive)	13.8 µM (inactive)	3.23 µM (inactive)	13.1 µM (inactive)	10.2 µM (inactive)	5.14 µM (inactive)	2.22 µM (inactive)	3.66
O=C1c2cccc3cccc(c23)C(=O)N1CCN(CCO)CCO	31.7 µM (inactive)	12.2 µM (inactive)	20 µM (inactive)	25.5 µM (inactive)	> 100 µM (inactive)	55.1 µM (inactive)	27.9 µM (inactive)	47.4 µM (inactive)	40.6 µM (inactive)	31.1 µM (inactive)	19.1 µM (inactive)	17.2 µM (inactive)	25.4 µM (inactive)	35.8 µM (inactive)	24.2 µM (inactive)	22.8
CNC(=O)OCc1nccc2c(C)c3[nH]c4ccc(OC)cc4c3cc12	3.69 µM (inactive)	8.91 µM (inactive)	9.12 µM (inactive)	2.7 µM (inactive)	2.58 µM (inactive)	10.7 µM (inactive)	2.54 µM (inactive)	8.75 µM (inactive)	3.78 µM (inactive)	16.7 µM (inactive)	3.03 µM (inactive)	2.79 µM (inactive)	19.1 µM (inactive)	9.73 µM (inactive)	0.705 µM (active)	3.03
Cc1c(C(=O)O)oc2ccc([N+](=O)[O-])cc12	> 100 µM (inactive)	> 100 µM (inactive)	> 100 µM (inactive)	> 100 µM (inactive)	> 100 µM (inactive)	> 100 µM (inactive)	> 100 µM (inactive)	> 100 µM (inactive)	> 100 µM (inactive)	> 100 µM (inactive)	> 100 µM (inactive)	> 100 µM (inactive)	> 100 µM (inactive)	> 100 µM (inactive)	> 10 µM (inactive)	> 100
C1=C2/CC[C@H](Sc3ccccc3)[C@H]2C2(CCCCC/1)OCCO2	40.4 µM (inactive)	16.9 µM (inactive)	27.9 µM (inactive)	32.1 µM (inactive)	22.2 µM (inactive)	31 µM (inactive)	34.6 µM (inactive)	37.8 µM (inactive)	40.2 µM (inactive)	18.5 µM (inactive)	29 µM (inactive)	29.6 µM (inactive)	> 100 µM (inactive)	> 100 µM (inactive)	–	28.2
CN1C(=O)CCC2[C@@H]3CC=C4C[C@@H](O)CC[C@]4(C)C3CC[C@@]21C (some centres not stated)	45.9 µM (inactive)	> 100 µM (inactive)	83.6 µM (inactive)	21.3 µM (inactive)	11.5 µM (inactive)	> 100 µM (inactive)	36.6 µM (inactive)	27.2 µM (inactive)	94.4 µM (inactive)	67.5 µM (inactive)	> 100 µM (inactive)	13.5 µM (inactive)	–	> 100 µM (inactive)	18.5 µM (inactive)	71.6
CC1=CP(=O)(OC(C)C)CC(C)=C1Cl (configuration not stated)	> 100 µM (inactive)	> 100 µM (inactive)	51.1 µM (inactive)	> 100 µM (inactive)	> 100 µM (inactive)	> 100 µM (inactive)	64.4 µM (inactive)	> 100 µM (inactive)	> 100 µM (inactive)	> 100 µM (inactive)	70.5 µM (inactive)	> 100 µM (inactive)	> 100 µM (inactive)	> 100 µM (inactive)	32.7 µM (inactive)	–
Cc1cccc(NC(=O)CC(=O)N2N=C(N(CCC#N)c3ccc(Cl)cc3)CC2c2ccccc2)c1 (configuration not stated)	> 100 µM (inactive)	–	> 100 µM (inactive)	> 100 µM (inactive)	> 100 µM (inactive)	–	> 100 µM (inactive)	> 100 µM (inactive)	> 100 µM (inactive)	–	> 100 µM (inactive)	> 100 µM (inactive)	> 100 µM (inactive)	> 100 µM (inactive)	> 100 µM (inactive)	–
COC(=O)C1=CC2C=CC(C1C(=O)OC)C1C(C(=O)OC)=C(C(=O)OC)C(C(=O)OC)=C(C(=O)OC)C21OC (configuration not stated)	> 100 µM (inactive)	> 100 µM (inactive)	> 100 µM (inactive)	–	> 100 µM (inactive)	> 100 µM (inactive)	> 100 µM (inactive)	> 100 µM (inactive)	> 100 µM (inactive)	> 100 µM (inactive)	> 100 µM (inactive)	> 100 µM (inactive)	> 100 µM (inactive)	> 100 µM (inactive)	> 100 µM (inactive)	> 100
COC(=O)N1C=CC2=C(C)C3Nc4ccccc4C3C(C)=C2C1 (configuration not stated)	1.73 µM (inactive)	1.47 µM (inactive)	1.64 µM (inactive)	2.09 µM (inactive)	1.98 µM (inactive)	1.86 µM (inactive)	1.96 µM (inactive)	1.64 µM (inactive)	0.54 µM (active)	1.25 µM (inactive)	1.01 µM (active)	3.15 µM (inactive)	–	7.29 µM (inactive)	0.234 µM (active)	1.12
CCOc1ccccc1NC(=O)CC1SC(Nc2ccc([N+](=O)[O-])cc2)=NC1=O (configuration not stated)	18.5 µM (inactive)	18.3 µM (inactive)	23.3 µM (inactive)	–	32.6 µM (inactive)	–	21.7 µM (inactive)	18 µM (inactive)	16.7 µM (inactive)	27.5 µM (inactive)	23.1 µM (inactive)	16 µM (inactive)	20.4 µM (inactive)	25.3 µM (inactive)	19 µM (inactive)	–
